Measured values as given in ChEMBL document CHEMBL1201862, “PubChem BioAssay data set” (2004).
Calls of active or inactive are those of the source.

Legend:
[1] = biological target: T1, E3 ubiquitin-protein ligase XIAP (Homo sapiens, UniProt P98170); experiment: Counter Screen using XIAP-Bir3 for Chemical Antagonists of Bir1/2 domains of IAP-family anti-apoptotic proteins. [Related pubchem assays (depositor defined):AID1018, AID1449, AID1514, AID1638, AID1749, AID1750, AID488957, AID488963]
[2] = biological target: T1, E3 ubiquitin-protein ligase XIAP; experiment: small molecules displacing peptide from XIAP – biochemical, IAP family, fluorescence polarization (AID 1018); format: functional
[3] = biological target: Heat shock protein HSP 90-alpha (Homo sapiens, UniProt P07900); format: functional, organism-based
[4] = A Cell Based Secondary Assay To Explore Cytotoxicity of Compounds that Sensitize Mycobacterium Tuberculosis to Beta-Lactam Antibiotics.; format: functional
[5] = biological target: G-protein coupled receptor 55 (Homo sapiens, UniProt Q9Y2T6); experiment: inhibition of LPI-stimulated GPR55 beta-arrestin translocation – imaging, U2OS, beta-arrestin-GFP, LPI agonist, primary screen (AID 2013); format: functional;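 note: antagonist potency measured as reduced agonist-driven arrestin aggregation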
Cytochrome P450 2D6 = Cytochrome P450 2D6 (Homo sapiens, UniProt P10635); experiment: qHTS Assay for Inhibitors and Substrates of Cytochrome P450 2D6. [Related pubchem assays: 410 ]; format: ADME; details: read-out: Potency
Nonstructural protein 1 = Nonstructural protein 1 (Influenza A virus, UniProt Q194T2); format: functional, Influenza A virus (A/California/07/2009(H1N1))
[6] = microbe, parasite or virus in culture; format: functional; details: Mycobacterium tuberculosis
[7] = Vero E6 cell cytotoxicity, dose response, cytotoxicity control for non-replicating M. tuberculosis project, secondary assay (AID 492998); format: functional, VeroE6; details: Vero C1008
[8] = HepG2 cell cytotoxicity, dose response, cytotoxicity control for non-replicating M. tuberculosis project (AID 489018); format: functional; details: Mycobacterium tuberculosis
cells = format: functional
[9] = THP-1 cell cytotoxicity, dose response, cytotoxicity control for non-replicating M. tuberculosis project (AID 489025); format: functional
[10] = system: Streptococcus sp. 'group A'; experiment: Streptococcus pyogenes SK(-)GAS viability under kanamycin – luminescence, BacTiterGlo, confirmation, counter-screen for streptokinase expression inhibitor project, dose response (AID 1900); format: functional, organism-based
Streptococcus = experiment: GAS UMAA2166 growth inhibition – luminescence, BacTiterGlo, counter-screen for streptokinase expression inhibitor project, dose response (AID 1915); format: functional, organism-based;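 note: potency for reduction of bacterial viability or growth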
Hexokinase HKDC1 = biological target: T2, Hexokinase HKDC1 (Homo sapiens, UniProt Q2TB90); experiment: inhibition of HKDC1 glucose phosphorylation – biochemical, W721R variant, dose response (AID 504729); format: functional
T2 sequence (Q2TB90 whole entry): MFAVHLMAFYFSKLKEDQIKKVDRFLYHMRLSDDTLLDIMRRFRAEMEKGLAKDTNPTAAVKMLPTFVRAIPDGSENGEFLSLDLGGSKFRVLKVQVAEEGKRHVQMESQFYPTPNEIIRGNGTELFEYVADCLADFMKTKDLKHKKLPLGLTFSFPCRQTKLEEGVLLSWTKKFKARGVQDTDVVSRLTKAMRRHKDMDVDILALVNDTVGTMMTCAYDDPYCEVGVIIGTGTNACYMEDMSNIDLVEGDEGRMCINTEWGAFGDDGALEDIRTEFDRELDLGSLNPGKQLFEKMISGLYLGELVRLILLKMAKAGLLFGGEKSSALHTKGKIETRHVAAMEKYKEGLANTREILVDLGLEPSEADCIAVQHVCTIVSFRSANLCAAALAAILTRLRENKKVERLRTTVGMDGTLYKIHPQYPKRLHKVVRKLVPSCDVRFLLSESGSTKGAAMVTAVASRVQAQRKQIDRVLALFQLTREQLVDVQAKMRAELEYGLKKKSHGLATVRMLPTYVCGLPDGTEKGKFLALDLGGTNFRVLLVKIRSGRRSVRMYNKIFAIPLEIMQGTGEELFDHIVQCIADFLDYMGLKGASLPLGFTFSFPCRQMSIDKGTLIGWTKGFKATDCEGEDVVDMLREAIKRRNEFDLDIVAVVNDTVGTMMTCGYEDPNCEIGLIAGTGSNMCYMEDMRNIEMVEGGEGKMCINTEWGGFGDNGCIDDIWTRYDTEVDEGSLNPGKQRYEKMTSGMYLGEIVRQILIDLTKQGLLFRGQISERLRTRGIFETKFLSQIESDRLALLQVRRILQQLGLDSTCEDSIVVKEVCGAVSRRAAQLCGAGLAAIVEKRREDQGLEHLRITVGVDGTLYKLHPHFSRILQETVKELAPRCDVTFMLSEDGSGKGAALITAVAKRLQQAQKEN

[11] = biological target: Lysosomal acid glucosylceramidase (Homo sapiens, UniProt P04062); experiment: Dose response cell-based high throughput screening assay to identify enhancers of beta-glucosidase activity. [Related pubchem assays: 784 ]; format: functional
HEK293 [12] = experiment: Cytotoxicity assay in HEK293 cells. [Related pubchem assays (depositor defined):AID1266, AID1269, AID1270, AID1271, AID1280, AID1281, AID1282, AID1283, AID1287, AID1289, AID1290, AID1291, AID1292, AID1293, AID1294, AID1295, AID1299, AID1302, AID1364, AID1365, AID1366, AID1367, AID1369, AID1370, AID1371, AID1372, AID1373, AID1374, AID1375, AID1384 …; format: functional, cell-based; details: Homo sapiens
[13] = biological target: T3, Luciferin 4-monooxygenase (Photinus pyralis, UniProt P08659); experiment: inhibition of purified Photinus pyralis luciferase – biochemical, luminescence, dose response (AID 1891)
HEK293 [14] = experiment: EBV LMP1 TES2 canonical NF-kB signalling blockers – cell-based, HEK293, luciferase, cherry-pick, dose response (AID 588343); format: functional; details: Homo sapiens
HEK293 [15] = experiment: PMA/Ionomycin induced NF-kB luciferase assay in 293- NF-kB-Luc stable cells. [Related pubchem assays: 1299, 1270, 1295, 1375, 1287, 1281, 1293, 1291, 1289, 1280, 465, 1364, 1282, 1372, 1365, 1370, 1367, 1366, 1269, 1373, 1292, 1290, 1302, 1371, 1283, 1271, 1294, 1374, 1368, 1369 ]; format: functional, cell-based; details: Homo sapiens
HEK293 [16] = experiment: TNF Induced NF-kB Luciferase in 293-NF-kB-Luc Stable Cells. [Related pubchem assays: 1266, 1299, 1269, 1373, 1292, 1290, 1302, 1371, 1283, 1270, 1295, 1271, 1375, 1294, 1374, 1281, 1293, 1291, 1289, 1280, 465, 1368, 1364, 1282, 1372, 1365, 1369, 1370, 1367, 1366 ]; format: functional, cell-based; details: Homo sapiens
[17] = biological target: T3, Luciferin 4-monooxygenase; experiment: In vitro luciferase assay using purified luciferase. [Related pubchem assays: 1299, 1270, 1295, 1375, 1287, 1281, 1293, 1291, 1289, 1280, 465, 1364, 1282, 1372, 1365, 1370, 1367, 1366, 1266, 1373, 1292, 1290, 1302, 1371, 1283, 1271, 1294, 1374, 1368, 1369 ]
[18] = Luminescence Cell-Based Dose Confirmation HTS to Identify Inhibitors of Platelet Dense Granule Release. [Related pubchem assays: 1663 (Primary HTS), 1678 (Summary of Project)]; format: functional
Streptokinase A = biological target: T4, Streptokinase A (Streptococcus pyogenes serotype M1, UniProt P10520); experiment: viability-normalized secreted streptokinase activity reduction – plasminogen activation absorbance, OD405, dose response (AID 1914); format: functional, Streptococcus pyogenes M1 GAS;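 note: secreted streptokinase activity via plasminogen activation per viability signal from cell pellet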
T4 sequence (P10520 whole entry): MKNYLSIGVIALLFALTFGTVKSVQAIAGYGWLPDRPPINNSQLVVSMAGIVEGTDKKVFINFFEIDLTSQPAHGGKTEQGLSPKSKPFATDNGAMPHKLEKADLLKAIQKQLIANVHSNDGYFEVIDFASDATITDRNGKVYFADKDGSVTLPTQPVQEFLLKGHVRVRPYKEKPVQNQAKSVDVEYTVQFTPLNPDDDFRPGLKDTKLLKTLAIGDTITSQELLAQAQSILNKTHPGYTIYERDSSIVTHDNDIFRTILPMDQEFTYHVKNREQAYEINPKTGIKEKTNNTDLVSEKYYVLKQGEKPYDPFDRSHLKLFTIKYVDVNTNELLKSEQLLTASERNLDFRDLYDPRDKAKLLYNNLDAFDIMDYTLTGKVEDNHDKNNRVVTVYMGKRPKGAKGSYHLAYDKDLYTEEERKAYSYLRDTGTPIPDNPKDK

[19] = fluconazole-exposed Candida albicans growth modulators – fluorescence, retest, confirmation (AID 2467); format: functional, cell-based
[20] = biological target: 26S proteasome non-ATPase regulatory subunit 14 (Homo sapiens, UniProt O00487); experiment: inhibition of proteasome subunit RPN11 – biochemical, fluorescence polarization, uHTS hits, confirmation (AID 602368); format: functional
[21] = biological target: 72 kDa type IV collagenase (Homo sapiens, UniProt P08253); experiment: Dose Response validation of uHTS RPN11 inhibitor hits using a MMP-2 Fluorescence assay.; format: functional
[22] = CCR5-tropic HIV-1 fusion blockers – cell-based, CCR5-tropic Env, dose response (AID 2279); format: functional
Prothrombin = Prothrombin (Bos taurus, UniProt P00735); experiment: thrombin protease inhibitors – biochemical, fluorescence polarization, uHTS hits, dose response (AID 602369); format: functional
INS1 = experiment: INS-1E survival protection against cytokine death – cell-based, luminescence, retest, dose response (AID 449756); format: functional; details: Rattus norvegicus;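 note: cell death triggered by IL-1 beta plus TNF-alpha plus IFN-gamma mixture; protective hits raise ATP signal compared with cytokine alone wells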
[23] = NIH-3T3 fibroblast cytotoxicity, dose response, cytotoxicity control, cell-based, fluorescence, Alamar Blue, secondary assay (AID 2327); format: functional;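 note: NIH-3T3 mouse fibroblasts cultured with fluconazole at 8 µg/mL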
CAAX prenyl protease 2 = CAAX prenyl protease 2 (Saccharomyces cerevisiae S288c, UniProt Q03530); format: biochemical
Trypsin = Trypsin (Sus scrofa, UniProt P00761); experiment: trypsin protease activity blockade – biochemical, quenched peptide fluorescence, cherry-pick, selectivity assay for Rce1 protease inhibitor project, dose response (AID 488789)
Sequence of Trypsin (P00761 whole entry): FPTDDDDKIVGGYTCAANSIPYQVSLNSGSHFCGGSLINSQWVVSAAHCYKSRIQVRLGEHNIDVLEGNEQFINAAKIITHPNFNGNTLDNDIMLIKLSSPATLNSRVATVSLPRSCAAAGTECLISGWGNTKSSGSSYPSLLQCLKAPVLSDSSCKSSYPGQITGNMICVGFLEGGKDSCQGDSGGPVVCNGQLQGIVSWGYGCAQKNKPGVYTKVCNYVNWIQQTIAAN

T1 sequence (P98170 whole entry): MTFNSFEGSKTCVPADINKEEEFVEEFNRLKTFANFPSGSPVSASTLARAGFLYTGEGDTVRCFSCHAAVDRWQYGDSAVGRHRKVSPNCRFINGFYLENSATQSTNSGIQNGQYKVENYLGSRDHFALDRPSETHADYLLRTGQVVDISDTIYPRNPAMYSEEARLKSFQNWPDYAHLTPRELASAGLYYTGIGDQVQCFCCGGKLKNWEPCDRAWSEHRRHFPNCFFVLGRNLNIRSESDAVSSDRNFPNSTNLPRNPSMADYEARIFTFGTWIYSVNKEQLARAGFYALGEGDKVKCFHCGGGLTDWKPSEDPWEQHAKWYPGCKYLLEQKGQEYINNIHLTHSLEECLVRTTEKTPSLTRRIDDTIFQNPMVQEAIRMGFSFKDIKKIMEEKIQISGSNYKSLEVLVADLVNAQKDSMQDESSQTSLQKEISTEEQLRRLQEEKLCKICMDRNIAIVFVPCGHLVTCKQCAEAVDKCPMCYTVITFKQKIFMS
Sequence of G-protein coupled receptor 55 (Q9Y2T6 whole entry): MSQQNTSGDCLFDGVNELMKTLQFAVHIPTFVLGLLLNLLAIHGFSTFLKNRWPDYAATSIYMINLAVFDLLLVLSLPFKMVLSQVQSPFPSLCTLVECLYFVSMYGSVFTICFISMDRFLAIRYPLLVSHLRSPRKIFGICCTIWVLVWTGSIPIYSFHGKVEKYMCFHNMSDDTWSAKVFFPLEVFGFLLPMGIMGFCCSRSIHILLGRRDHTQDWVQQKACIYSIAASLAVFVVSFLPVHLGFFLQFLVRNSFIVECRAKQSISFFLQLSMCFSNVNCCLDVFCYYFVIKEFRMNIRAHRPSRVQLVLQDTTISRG
Sequence of Lysosomal acid glucosylceramidase (P04062 whole entry): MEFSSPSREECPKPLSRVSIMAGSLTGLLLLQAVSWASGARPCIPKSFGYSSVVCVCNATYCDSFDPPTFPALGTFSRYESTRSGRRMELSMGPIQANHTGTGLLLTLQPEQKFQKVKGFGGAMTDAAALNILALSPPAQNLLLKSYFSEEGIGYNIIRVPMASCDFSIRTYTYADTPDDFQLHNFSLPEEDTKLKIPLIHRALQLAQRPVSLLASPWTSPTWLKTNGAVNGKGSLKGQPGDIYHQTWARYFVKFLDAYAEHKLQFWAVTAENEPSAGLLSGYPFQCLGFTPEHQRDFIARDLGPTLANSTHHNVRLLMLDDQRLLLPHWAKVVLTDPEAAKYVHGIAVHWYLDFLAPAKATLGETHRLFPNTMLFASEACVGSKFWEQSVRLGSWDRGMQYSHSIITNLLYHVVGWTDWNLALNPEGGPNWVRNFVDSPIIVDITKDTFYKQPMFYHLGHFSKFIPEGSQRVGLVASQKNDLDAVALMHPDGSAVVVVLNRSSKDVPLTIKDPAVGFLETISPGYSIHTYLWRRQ
Sequence of Cytochrome P450 2D6 (P10635 whole entry): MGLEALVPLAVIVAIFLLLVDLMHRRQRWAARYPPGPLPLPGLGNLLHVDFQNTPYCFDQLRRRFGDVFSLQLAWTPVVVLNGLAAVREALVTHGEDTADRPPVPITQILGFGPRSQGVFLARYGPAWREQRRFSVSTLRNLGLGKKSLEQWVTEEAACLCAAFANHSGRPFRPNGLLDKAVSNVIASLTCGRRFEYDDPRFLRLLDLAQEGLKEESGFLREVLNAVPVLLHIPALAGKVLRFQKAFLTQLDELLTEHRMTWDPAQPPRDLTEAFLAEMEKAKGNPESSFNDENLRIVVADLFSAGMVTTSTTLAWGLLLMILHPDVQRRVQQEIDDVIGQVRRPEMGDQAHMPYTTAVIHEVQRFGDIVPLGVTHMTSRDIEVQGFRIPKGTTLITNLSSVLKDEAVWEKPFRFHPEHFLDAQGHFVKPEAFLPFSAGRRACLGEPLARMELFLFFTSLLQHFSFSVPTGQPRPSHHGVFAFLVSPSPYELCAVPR
T3 sequence (P08659 whole entry): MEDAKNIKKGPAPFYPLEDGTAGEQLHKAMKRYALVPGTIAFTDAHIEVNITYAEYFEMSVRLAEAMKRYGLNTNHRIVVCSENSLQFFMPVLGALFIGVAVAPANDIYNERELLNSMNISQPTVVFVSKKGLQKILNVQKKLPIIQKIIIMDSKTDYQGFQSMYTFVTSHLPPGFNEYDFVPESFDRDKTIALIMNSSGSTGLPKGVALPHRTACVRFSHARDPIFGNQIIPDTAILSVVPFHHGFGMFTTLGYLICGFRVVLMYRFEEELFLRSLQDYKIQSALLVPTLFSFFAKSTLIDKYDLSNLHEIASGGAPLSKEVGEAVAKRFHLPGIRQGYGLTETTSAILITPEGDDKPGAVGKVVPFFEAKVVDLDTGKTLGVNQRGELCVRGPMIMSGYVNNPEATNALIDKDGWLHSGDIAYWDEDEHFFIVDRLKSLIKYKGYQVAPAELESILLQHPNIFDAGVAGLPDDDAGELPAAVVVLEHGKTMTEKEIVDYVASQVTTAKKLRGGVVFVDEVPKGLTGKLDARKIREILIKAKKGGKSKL
Sequence of 72 kDa type IV collagenase (P08253 whole entry, the tested form may be a part): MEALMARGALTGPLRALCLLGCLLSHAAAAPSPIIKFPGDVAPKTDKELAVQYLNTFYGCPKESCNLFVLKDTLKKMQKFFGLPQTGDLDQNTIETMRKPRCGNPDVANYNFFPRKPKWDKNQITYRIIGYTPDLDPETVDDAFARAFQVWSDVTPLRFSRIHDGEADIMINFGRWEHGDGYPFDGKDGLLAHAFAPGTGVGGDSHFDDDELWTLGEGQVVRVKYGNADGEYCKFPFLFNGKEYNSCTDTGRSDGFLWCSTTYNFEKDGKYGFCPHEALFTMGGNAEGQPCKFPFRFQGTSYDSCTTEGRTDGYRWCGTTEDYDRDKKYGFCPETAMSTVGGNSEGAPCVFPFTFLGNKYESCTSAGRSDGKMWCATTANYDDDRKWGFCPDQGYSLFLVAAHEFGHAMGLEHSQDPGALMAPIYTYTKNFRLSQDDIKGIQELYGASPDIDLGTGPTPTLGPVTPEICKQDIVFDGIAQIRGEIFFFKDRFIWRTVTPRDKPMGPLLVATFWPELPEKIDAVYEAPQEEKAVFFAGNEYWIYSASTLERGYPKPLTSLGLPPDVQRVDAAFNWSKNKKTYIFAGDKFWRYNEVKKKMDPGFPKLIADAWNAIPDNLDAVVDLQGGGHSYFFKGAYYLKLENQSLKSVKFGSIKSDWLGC
Sequence of Nonstructural protein 1 (Q194T2 whole entry): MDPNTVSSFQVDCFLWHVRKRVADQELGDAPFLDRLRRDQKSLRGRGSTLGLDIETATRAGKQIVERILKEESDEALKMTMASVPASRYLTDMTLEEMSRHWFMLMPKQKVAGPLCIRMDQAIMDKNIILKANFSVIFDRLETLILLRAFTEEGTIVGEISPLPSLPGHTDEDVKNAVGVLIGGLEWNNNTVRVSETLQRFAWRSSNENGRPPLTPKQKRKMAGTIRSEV
Sequence of CAAX prenyl protease 2 (Q03530 whole entry): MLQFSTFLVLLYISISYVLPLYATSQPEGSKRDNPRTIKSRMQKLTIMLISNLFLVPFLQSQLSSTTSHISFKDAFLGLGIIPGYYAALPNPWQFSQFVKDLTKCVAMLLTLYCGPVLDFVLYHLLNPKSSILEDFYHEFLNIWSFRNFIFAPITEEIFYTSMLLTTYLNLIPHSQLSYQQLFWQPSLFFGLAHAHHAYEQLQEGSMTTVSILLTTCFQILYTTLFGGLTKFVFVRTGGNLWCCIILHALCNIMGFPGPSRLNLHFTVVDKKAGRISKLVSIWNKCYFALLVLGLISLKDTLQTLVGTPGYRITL
Sequence of 26S proteasome non-ATPase regulatory subunit 14 (O00487 whole entry): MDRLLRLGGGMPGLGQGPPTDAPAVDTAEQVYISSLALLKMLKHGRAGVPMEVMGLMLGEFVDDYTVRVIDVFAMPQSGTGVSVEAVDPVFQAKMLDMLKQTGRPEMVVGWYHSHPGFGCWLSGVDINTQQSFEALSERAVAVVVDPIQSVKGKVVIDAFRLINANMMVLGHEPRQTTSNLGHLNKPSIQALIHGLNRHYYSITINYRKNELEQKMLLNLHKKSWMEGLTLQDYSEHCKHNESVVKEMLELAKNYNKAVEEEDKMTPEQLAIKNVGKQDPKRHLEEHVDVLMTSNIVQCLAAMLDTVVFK

CC1(C)CC(=O)N(CC(=O)O)c2ccccc2S1(=O)=O
IC50 [1]: > 100 µM (inactive) | IC50 [2]: > 100 µM (not active)

OCCOCCn1c(C2CCCN2c2nc(-c3ccc(F)cc3)cs2)nc2cc(Cl)c(Cl)cc21 (configuration not stated)
AC50 [3]: 6.11 µM (active) | CC50 [4]: 37.6 µM (active)

CCOc1ccc(NC(=O)c2ccccc2OCC(=O)c2ccccc2)cc1
IC50 [5]: 1.74 µM (active)

Cc1ccc(N(C)C(=O)c2cc(S(=O)(=O)N3CCc4ccccc43)cn2C)cc1
IC50 [5]: 0.769 µM (active)

CC(C)[C@@]1(NC(=O)[C@H]2C[C@H]3c4cccc5[nH]cc(c45)C[C@@H]3N(C)C2)O[C@]2(O)[C@H]3CCCN3C(=O)[C@H](Cc3ccccc3)N2C1=O
AC50 (Cytochrome P450 2D6): 31.6 µM (inconclusive)

COc1ccc(OCC2CC3C(CCC(C)C3c3ccc(Br)cc3)C(=O)O2)cc1 (configuration not stated)
AC50 (Cytochrome P450 2D6): 7.94 µM (inconclusive)

COCc1cc(O)nc(Nc2nc3ccccc3o2)n1
IC50 (Nonstructural protein 1): 10.8 µM (active) | CC50 [6]: 16 µM (active) | CC50 [7]: 7.52 µM (active) | CC50 [8]: 16.8 µM (active) | IC50 (cells): 1.85 µM (active) | CC50 [9]: 19.4 µM (active) | EC50 [10]: 2.21 µM (active) | EC50 (Streptococcus): 9.09 µM (active)

CC(C)Nc1nnc(SCC(=O)Nc2ccc3c(c2)C(=O)c2ccccc2C3=O)s1
IC50 (Hexokinase HKDC1): 29.7 µM (inactive)

Cc1ccc(N2C(=O)Nc3ccc(Br)cc3C2(O)C(=O)NCCCN(C)C)cc1C (configuration not stated)
EC50 [11]: > 50 µM (not active)

Cc1cccc2c(N=NC(=O)c3ccc(NS(=O)(=O)c4cccs4)cc3)c(O)[nH]c12
IC50 (Hexokinase HKDC1): 15.5 µM (active)

c1ccc(Cn2c(SCc3nc4ccccc4s3)nnc2-c2ccco2)cc1
EC50 [11]: > 50 µM (not active)

Cc1ccccc1Oc1nnc(-c2cccs2)c2ccccc12
IC50 [1]: > 100 µM (inactive) | IC50 [2]: > 100 µM (not active)

CC(=O)c1ccc(-c2nc3c4ccccc4ccn3c2C(C)=O)o1
EC50 (HEK293 [12]): > 8 µM (inactive) | EC50 [13]: > 112 µM (not active) | AC50 (HEK293 [14]): 3.1 µM (active) | EC50 (HEK293 [15]): 0.0552 µM (active) | EC50 (HEK293 [16]): 0.503 µM (active) | EC50 [17]: > 8 µM (not active) | EC50 [18]: > 112 µM (not active)

COc1cc([N+](=O)[O-])cc(/C=N/NC(=O)c2cc(-c3ccccc3)nc3ccccc23)c1O
EC50 (Streptokinase A): > 150 µM (not active) | EC50 [19]: 2.08 µM (active) | EC50 [10]: 5.37 µM (active) | IC50 [20]: 22.3 µM (active) | IC50 [21]: 3.79 µM (active) | IC50 [22]: 31.7 µM (active) | EC50 (Streptococcus): 8.58 µM (active) | IC50 (Prothrombin): 75.1 µM (active) | AC50 (INS1): 3.63 µM (active) | EC50 [23]: 22.5 µM (inconclusive)

Cc1cc(O)nc(N/N=C/c2c(F)c(F)c(F)c(F)c2F)n1
CC50 [4]: > 40 µM (active)

Cc1cccc(/C=N/NC(=O)c2ccc(Br)cc2)c1
AC50 (CAAX prenyl protease 2): 7.44 µM (active) | AC50 (Trypsin): 7.5 µM (active)
